Test results from patent publication US20250340557A1, “PYRIMIDINE DERIVATIVE” (ASKA PHARMACEUTICAL CO., LTD., priority 2022, published 2025).

target: T1, human mPGES-1 (Homo sapiens, UniProt O14684); experiment: Test for mPGES-1 inhibitory activity (microsomal enzyme, PGE2 EIA); format: biochemical; details: microsomes from COS-1 cells transfected with human mPGES-1 cDNA; substrate PGH2 1 μM; 4° C., 4 minutes; PGE2 measured by EIA; read-out: h mPGES1 IC50
T1 construct: made in house; host or cells: COS-1 cells (transient transfection; microsomal fraction used as enzyme)
T1 sequence (O14684 1-152): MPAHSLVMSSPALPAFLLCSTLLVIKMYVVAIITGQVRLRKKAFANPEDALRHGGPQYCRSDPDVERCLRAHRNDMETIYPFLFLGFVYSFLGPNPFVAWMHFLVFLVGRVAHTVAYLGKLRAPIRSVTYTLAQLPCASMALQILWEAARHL
Method: Test Example 1: Test for mPGES-1 Inhibitory Activity
Microsomes were prepared from COS-1 cells transiently transfected with a plasmid containing human mPGES-1 cDNA, and used as mPGES-1 enzyme. The mPGES-1 enzyme was diluted with a sodium phosphate buffer (pH 7.2) containing reduced glutathione (2.5 mM) and EDTA (1 mM), DMSO or a DMSO solution of a test compound (final concentration of DMSO was 2%) was added to the enzyme, and the mixture was preincubated at 4° C. for 15 minutes. Then, PGH2 (Prostaglandin H2) as the substrate was added at a final concentration of 1 μM to start the enzymatic reaction, and after incubation at 4° C. for 4 minutes, a solution of ferric chloride (25 mM) and citric acid (50 mM) was added to terminate the enzymatic reaction. Generated PGE2 (Prostaglandin E2) was measured by using Prostaglandin E2 Express EIA Kit (Cayman Chemical). IC50 values were determined by using a standard method.

| Compound | IC50 |
| --- | --- |
| O=c1cc(C(F)(F)F)nc(-c2c(C(F)(F)F)ccc(CNC(=O)[C@H]3C[C@H](OCc4ccccc4C(F)(F)F)C3)c2F)[nH]1 [Example 142, trans-N-{2-fluoro-3-[6-oxo-4-(trifluoromethyl)-1,6-dihydropyrimidin-2-yl]-4-(trifluoromethyl)benzyl}-3-{[2-(trifluoromethyl)benzyl]oxy}cyclobutane-1-carboxamide] | < 1 nM |
| Cc1nc(-c2c(C(F)(F)F)ccc(CNC(=O)C3(F)CCN(c4ccc(C(F)(F)F)cn4)CC3)c2F)[nH]c(=O)c1F [Example 51, 4-fluoro-N-[2-fluoro-3-(5-fluoro-4-methyl-6-oxo-1,6-dihydropyrimidin-2-yl)-4-(trifluoromethyl)benzyl]-1-[5-(trifluoromethyl)pyridin-2-yl]piperidine-4-carboxamide] | < 1 nM |
| Cc1nc(-c2c(C(F)(F)F)ccc(CNC(=O)[C@H]3CC[C@H](OCc4ccccc4Cl)CC3)c2F)[nH]c(=O)c1F [Example 102, trans-4-[(2-chlorobenzyl)oxy]-N-[2-fluoro-3-(5-fluoro-4-methyl-6-oxo-1,6-dihydropyrimidin-2-yl)-4-(trifluoromethyl)benzyl]cyclohexane-1-carboxamide] | < 1 nM |
| O=c1cc(C(F)(F)F)nc(-c2c(C(F)(F)F)ccc(CNC(=O)[C@H]3C[C@H](OCc4cccc(C(F)(F)F)c4)C3)c2F)[nH]1 [Example 144, trans-N-{2-fluoro-3-[6-oxo-4-(trifluoromethyl)-1,6-dihydropyrimidin-2-yl]-4-(trifluoromethyl)benzyl}-3-{[3-(trifluoromethyl)benzyl]oxy}cyclobutane-1-carboxamide] | < 1 nM |
| Cc1cccc2ccc(N3CCC(C(=O)NCc4ccc(C(F)(F)F)c(-c5nccc(=O)[nH]5)c4F)CC3)nc12 [Example 7, N-[2-fluoro-3-(6-oxo-1,6-dihydropyrimidin-2-yl)-4-(trifluoromethyl)benzyl]-1-(8-methylquinolin-2-yl)piperidine-4-carboxamide] | < 1 nM |

The next lines start with the values.

| IC50 | Compound |
| --- | --- |
| 4.8 nM | CCc1cc(=O)[nH]c(-c2c(C(F)(F)F)ccc(CNC(=O)C3CCN(c4ccc(C(F)(F)F)cn4)CC3)c2F)n1 [Example 23, N-[3-(4-ethyl-6-oxo-1,6-dihydropyrimidin-2-yl)-2-fluoro-4-(trifluoromethyl)benzyl]-1-[5-(trifluoromethyl)pyridin-2-yl]piperidine-4-carboxamide] |
| 76 nM | CCc1cc(=O)[nH]c(-c2c(C(F)(F)F)ccc(CNC(=O)C3CCN(c4cccc(C)n4)CC3)c2F)n1 [Example 24, N-[3-(4-ethyl-6-oxo-1,6-dihydropyrimidin-2-yl)-2-fluoro-4-(trifluoromethyl)benzyl]-1-(6-methylpyridin-2-yl)piperidine-4-carboxamide] |
| 8.4 nM | O=C(NCc1ccc(C(F)(F)F)c(-c2nc(C(F)(F)F)cc(=O)[nH]2)c1F)C1CCN(c2cccc(Cl)c2Cl)CC1 [Example 69, 1-(2,3-dichlorophenyl)-N-{2-fluoro-3-[6-oxo-4-(trifluoromethyl)-1,6-dihydropyrimidin-2-yl]-4-(trifluoromethyl)benzyl}piperidine-4-carboxamide] |
| < 1 nM | O=C(NCc1ccc(C(F)(F)F)c(-c2nc(C(F)(F)F)cc(=O)[nH]2)c1F)C1CCN(c2ccc(Cl)c(Cl)c2)CC1 [Example 66, 1-(3,4-dichlorophenyl)-N-{2-fluoro-3-[6-oxo-4-(trifluoromethyl)-1,6-dihydropyrimidin-2-yl]-4-(trifluoromethyl)benzyl}piperidine-4-carboxamide] |
| 1.6 nM | CCc1nc(-c2c(C(F)(F)F)ccc(CNC(=O)C3CCN(c4ccc(C#N)cc4Cl)CC3)c2F)[nH]c(=O)c1F [Example 90, 1-(2-chloro-4-cyanophenyl)-N-[3-(4-ethyl-5-fluoro-6-oxo-1,6-dihydropyrimidin-2-yl)-2-fluoro-4-(trifluoromethyl)benzyl]piperidine-4-carboxamide] |
| 11 nM | O=C(NCc1ccc(C(F)(F)F)c(-c2nc(C(F)F)cc(=O)[nH]2)c1F)C1CCN(c2ccc(C(F)(F)F)cn2)CC1 [Example 29, N-{3-[4-(difluoromethyl)-6-oxo-1,6-dihydropyrimidin-2-yl]-2-fluoro-4-(trifluoromethyl)benzyl}-1-[5-(trifluoromethyl)pyridin-2-yl]piperidine-4-carboxamide] |
| 2 nM | O=c1cc(C(F)(F)F)nc(-c2c(C(F)(F)F)ccc(CNC(=O)[C@H]3C[C@H](OCc4ccccc4Cl)C3)c2F)[nH]1 [Example 136, trans-3-[(2-chlorobenzyl)oxy]-N-{2-fluoro-3-[6-oxo-4-(trifluoromethyl)-1,6-dihydropyrimidin-2-yl]-4-(trifluoromethyl)benzyl}cyclobutane-1-carboxamide] |

same assay, conditions: microsomes of COS-1 cells transfected with human mPGES-1 cDNA; PGH2 1 μM; 4° C., 4 minutes; PGE2 by EIA; read-out: h mPGES1 IC50

| Compound | IC50 |
| --- | --- |
| Cc1cc(=O)[nH]c(-c2c(C(F)(F)F)ccc(CNC(=O)[C@H]3C[C@H](OCc4ccc(Cl)cc4F)C3)c2F)n1 [Example 185, trans-3-[(4-chloro-2-fluorobenzyl)oxy]-N-[2-fluoro-3-(4-methyl-6-oxo-1,6-dihydropyrimidin-2-yl)-4-(trifluoromethyl)benzyl]cyclobutane-1-carboxamide] | 1.2 nM |
| CCc1cc(=O)[nH]c(-c2c(C(F)(F)F)ccc(CNC(=O)[C@H]3C[C@H](OCc4ccccc4C(F)(F)F)C3)c2F)n1 [Example 198, trans-N-[3-(4-ethyl-6-oxo-1,6-dihydropyrimidin-2-yl)-2-fluoro-4-(trifluoromethyl)benzyl]-3-{[2-(trifluoromethyl)benzyl]oxy}cyclobutane-1-carboxamide] | 1.4 nM |
| CCc1nc(-c2c(C(F)(F)F)ccc(CNC(=O)[C@H]3C[C@H](OCc4cc(Cl)ccc4F)C3)c2F)[nH]c(=O)c1F [Example 243, trans-3-[(5-chloro-2-fluorobenzyl)oxy]-N-[3-(4-ethyl-5-fluoro-6-oxo-1,6-dihydropyrimidin-2-yl)-2-fluoro-4-(trifluoromethyl)benzyl]cyclobutane-1-carboxamide] | < 1 nM |
| CCc1nc(-c2c(C(F)(F)F)ccc(CNC(=O)[C@H]3C[C@H](OCc4ccccc4C(F)(F)F)C3)c2F)[nH]c(=O)c1F [Example 232, trans-N-[3-(4-ethyl-5-fluoro-6-oxo-1,6-dihydropyrimidin-2-yl)-2-fluoro-4-(trifluoromethyl)benzyl]-3-{[2-(trifluoromethyl)benzyl]oxy}cyclobutane-1-carboxamide] | < 1 nM |
| Cc1nc(-c2c(C(F)(F)F)ccc(CNC(=O)[C@H]3C[C@H](OCc4cc(Cl)ccc4F)C3)c2F)[nH]c(=O)c1F [Example 226, trans-3-[(5-chloro-2-fluorobenzyl)oxy]-N-[2-fluoro-3-(5-fluoro-4-methyl-6-oxo-1,6-dihydropyrimidin-2-yl)-4-(trifluoromethyl)benzyl]cyclobutane-1-carboxamide] | < 1 nM |
| Cc1nc(-c2c(C(F)(F)F)ccc(CNC(=O)[C@H]3C[C@H](OCc4cccc(F)c4F)C3)c2F)[nH]c(=O)c1F [Example 223, trans-3-[(2,3-difluorobenzyl)oxy]-N-[2-fluoro-3-(5-fluoro-4-methyl-6-oxo-1,6-dihydropyrimidin-2-yl)-4-(trifluoromethyl)benzyl]cyclobutane-1-carboxamide] | < 1 nM |
| CCc1nc(-c2c(C(F)(F)F)ccc(CNC(=O)[C@H]3C[C@H](OCc4ccc(F)cc4F)C3)c2F)[nH]c(=O)c1F [Example 235, trans-3-[(2,4-difluorobenzyl)oxy]-N-[3-(4-ethyl-5-fluoro-6-oxo-1,6-dihydropyrimidin-2-yl)-2-fluoro-4-(trifluoromethyl)benzyl]cyclobutane-1-carboxamide] | 1.1 nM |
| Cc1nc(-c2c(C(F)(F)F)ccc(CNC(=O)[C@H]3C[C@H](OCc4ccccc4Cl)C3)c2F)[nH]c(=O)c1F [Example 212, trans-3-[(2-chlorobenzyl)oxy]-N-[2-fluoro-3-(5-fluoro-4-methyl-6-oxo-1,6-dihydropyrimidin-2-yl)-4-(trifluoromethyl)benzyl]cyclobutane-1-carboxamide] | < 1 nM |

Next, values leading:

| IC50 | Compound |
| --- | --- |
| < 1 nM | O=C(NCc1ccc(C(F)(F)F)c(-c2nc(C(F)(F)F)cc(=O)[nH]2)c1F)N1CCC(Oc2ccc(Cl)c(Cl)c2)CC1 [Example 258, 4-(3,4-dichlorophenoxy)-N-{2-fluoro-3-[6-oxo-4-(trifluoromethyl)-1,6-dihydropyrimidin-2-yl]-4-(trifluoromethyl)benzyl}piperidine-1-carboxamide] |
| 4.6 nM | O=c1cc(C(F)(F)F)nc(-c2c(C(F)(F)F)ccc(CNC(=O)[C@H]3C[C@@H](Oc4cccc(Cl)c4)C3)c2F)[nH]1 [Example 254, cis-3-(3-chlorophenoxy)-N-{2-fluoro-3-[6-oxo-4-(trifluoromethyl)-1,6-dihydropyrimidin-2-yl]-4-(trifluoromethyl)benzyl}cyclobutane-1-carboxamide] |
| 2.8 nM | O=c1cc(C(F)(F)F)nc(-c2c(C(F)(F)F)ccc(CNC(=O)[C@H]3C[C@H](Oc4ccc(Cl)cc4)C3)c2F)[nH]1 [Example 255, trans-3-(4-chlorophenoxy)-N-{2-fluoro-3-[6-oxo-4-(trifluoromethyl)-1,6-dihydropyrimidin-2-yl]-4-(trifluoromethyl)benzyl}cyclobutane-1-carboxamide] |
